# Values quoted from earlier work in patent US12490952B2, “Combined sub-iliopsoas and subpectineal blocks—for hip surgery” (National Guard Health Affairs, priority 2020, dated 2025).
# Conditions: local anesthetic, general background statement
smiles,measurement,value
CCN(CC)CCOC(=O)c1ccc(N)cc1Cl [Chloroprocaine],duration of action (short-acting / intermediate duration),45 to 90 min
